According to PubChem BioAssay AID2060483 (Molecular Pharmacology Branch, DTP, NCI, 2025):

Test system: K24384-001-R-PDC complex spheroids, viability
Experiment: Anticancer human tumor K24384-001-R-PDC patient-derived pancreatic adenocarcinoma cell line growth inhibition [GQUAD]
Conditions: for IC50: curve of first compound; for viability, T/C: stronger effect = lower value
Outline: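 Multi-cell-type spheroids of tumor cells with HUVEC and mesenchymal stem cells, treated with drug combinations. Concentrations descend in half-log steps from near clinical Cmax, or from 10 microM where Cmax is unknown; viability read-out.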
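Further: spheroids exposed to compounds for seven days.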

`CCc1c2c(nc3ccc(O)cc13)-c1cc3c(c(=O)n1C2)COC(=O)[C@]3(O)CC` + CN(C)c1ccc(Nc2c3ccc(NC(=O)CCN4CCCC4)cc3nc3cc(NC(=O)CCN4CCCC4)ccc23)cc1 gave an IC50 (second compound 0.0316 µM) of 7.33 nM, an IC50 (second compound 0.1 µM) of 8.91 nM and an IC50 (second compound 0.316 µM) of 5.68 nM. It also gave an IC50 (second compound 1 µM) of 5.64 nM, an IC50 (second compound 3.16 µM) of 3.47 nM and an IC50 (second compound 10 µM) of 16.2 nM. The viability, T/C (second compound 0.0316 µM, first compound 0.000999 µM) was 80.2%, the viability, T/C (second compound 0.0316 µM, first compound 0.00316 µM) was 78.2% and the viability, T/C (second compound 0.0316 µM, first compound 0.00999 µM) was 39.6%. The viability, T/C (second compound 0.0316 µM, first compound 0.0316 µM) was 32.2%, the viability, T/C (second compound 0.0316 µM, first compound 0.0999 µM) was 35.4% and the viability, T/C (second compound 0.0316 µM, first compound 0.316 µM) was 30.3%. For the same compound, the viability, T/C (second compound 0.1 µM, first compound 0.000999 µM) was 69.6%, the viability, T/C (second compound 0.1 µM, first compound 0.00316 µM) was 62.7% and the viability, T/C (second compound 0.1 µM, first compound 0.00999 µM) was 49.7%. For the same compound, the viability, T/C (second compound 0.1 µM, first compound 0.0316 µM) was 34.2%, the viability, T/C (second compound 0.1 µM, first compound 0.0999 µM) was 36.1% and the viability, T/C (second compound 0.1 µM, first compound 0.316 µM) was 32.3%. It also gave a viability, T/C (second compound 0.316 µM, first compound 0.000999 µM) of 73.2%, a viability, T/C (second compound 0.316 µM, first compound 0.00316 µM) of 65.2% and a viability, T/C (second compound 0.316 µM, first compound 0.00999 µM) of 35.2%. The viability, T/C (second compound 0.316 µM, first compound 0.0316 µM) was 42.8%, the viability, T/C (second compound 0.316 µM, first compound 0.0999 µM) was 33.6% and the viability, T/C (second compound 0.316 µM, first compound 0.316 µM) was 26.3%. The viability, T/C (second compound 1 µM, first compound 0.000999 µM) was 69.8%, the viability, T/C (second compound 1 µM, first compound 0.00316 µM) was 58.2% and the viability, T/C (second compound 1 µM, first compound 0.00999 µM) was 39.9%. It also gave a viability, T/C (second compound 1 µM, first compound 0.0316 µM) of 39.9%, a viability, T/C (second compound 1 µM, first compound 0.0999 µM) of 28.6% and a viability, T/C (second compound 1 µM, first compound 0.316 µM) of 28%. For the same compound, the viability, T/C (second compound 3.16 µM, first compound 0.000999 µM) was 82.3%, the viability, T/C (second compound 3.16 µM, first compound 0.00316 µM) was 51.2% and the viability, T/C (second compound 3.16 µM, first compound 0.00999 µM) was 37%. The viability, T/C (second compound 3.16 µM, first compound 0.0316 µM) was 37.5%, the viability, T/C (second compound 3.16 µM, first compound 0.0999 µM) was 34% and the viability, T/C (second compound 3.16 µM, first compound 0.316 µM) was 30.9%. It also gave a viability, T/C (second compound 10 µM, first compound 0.000999 µM) of 70.7%, a viability, T/C (second compound 10 µM, first compound 0.00316 µM) of 61.2% and a viability, T/C (second compound 10 µM, first compound 0.00999 µM) of 59.4%. The viability, T/C (second compound 10 µM, first compound 0.0316 µM) was 37.3%, the viability, T/C (second compound 10 µM, first compound 0.0999 µM) was 36.6% and the viability, T/C (second compound 10 µM, first compound 0.316 µM) was 32.8%.
